pIC50: −log10 of the molar value.

The assay has as its target citron kinase (CIT/CRIK) (Homo sapiens, UniProt O14578). The assay can be described thus: in vitro kinase assay. It is filed as biochemical.

Sequence of citron kinase (CIT/CRIK) (O14578 whole entry): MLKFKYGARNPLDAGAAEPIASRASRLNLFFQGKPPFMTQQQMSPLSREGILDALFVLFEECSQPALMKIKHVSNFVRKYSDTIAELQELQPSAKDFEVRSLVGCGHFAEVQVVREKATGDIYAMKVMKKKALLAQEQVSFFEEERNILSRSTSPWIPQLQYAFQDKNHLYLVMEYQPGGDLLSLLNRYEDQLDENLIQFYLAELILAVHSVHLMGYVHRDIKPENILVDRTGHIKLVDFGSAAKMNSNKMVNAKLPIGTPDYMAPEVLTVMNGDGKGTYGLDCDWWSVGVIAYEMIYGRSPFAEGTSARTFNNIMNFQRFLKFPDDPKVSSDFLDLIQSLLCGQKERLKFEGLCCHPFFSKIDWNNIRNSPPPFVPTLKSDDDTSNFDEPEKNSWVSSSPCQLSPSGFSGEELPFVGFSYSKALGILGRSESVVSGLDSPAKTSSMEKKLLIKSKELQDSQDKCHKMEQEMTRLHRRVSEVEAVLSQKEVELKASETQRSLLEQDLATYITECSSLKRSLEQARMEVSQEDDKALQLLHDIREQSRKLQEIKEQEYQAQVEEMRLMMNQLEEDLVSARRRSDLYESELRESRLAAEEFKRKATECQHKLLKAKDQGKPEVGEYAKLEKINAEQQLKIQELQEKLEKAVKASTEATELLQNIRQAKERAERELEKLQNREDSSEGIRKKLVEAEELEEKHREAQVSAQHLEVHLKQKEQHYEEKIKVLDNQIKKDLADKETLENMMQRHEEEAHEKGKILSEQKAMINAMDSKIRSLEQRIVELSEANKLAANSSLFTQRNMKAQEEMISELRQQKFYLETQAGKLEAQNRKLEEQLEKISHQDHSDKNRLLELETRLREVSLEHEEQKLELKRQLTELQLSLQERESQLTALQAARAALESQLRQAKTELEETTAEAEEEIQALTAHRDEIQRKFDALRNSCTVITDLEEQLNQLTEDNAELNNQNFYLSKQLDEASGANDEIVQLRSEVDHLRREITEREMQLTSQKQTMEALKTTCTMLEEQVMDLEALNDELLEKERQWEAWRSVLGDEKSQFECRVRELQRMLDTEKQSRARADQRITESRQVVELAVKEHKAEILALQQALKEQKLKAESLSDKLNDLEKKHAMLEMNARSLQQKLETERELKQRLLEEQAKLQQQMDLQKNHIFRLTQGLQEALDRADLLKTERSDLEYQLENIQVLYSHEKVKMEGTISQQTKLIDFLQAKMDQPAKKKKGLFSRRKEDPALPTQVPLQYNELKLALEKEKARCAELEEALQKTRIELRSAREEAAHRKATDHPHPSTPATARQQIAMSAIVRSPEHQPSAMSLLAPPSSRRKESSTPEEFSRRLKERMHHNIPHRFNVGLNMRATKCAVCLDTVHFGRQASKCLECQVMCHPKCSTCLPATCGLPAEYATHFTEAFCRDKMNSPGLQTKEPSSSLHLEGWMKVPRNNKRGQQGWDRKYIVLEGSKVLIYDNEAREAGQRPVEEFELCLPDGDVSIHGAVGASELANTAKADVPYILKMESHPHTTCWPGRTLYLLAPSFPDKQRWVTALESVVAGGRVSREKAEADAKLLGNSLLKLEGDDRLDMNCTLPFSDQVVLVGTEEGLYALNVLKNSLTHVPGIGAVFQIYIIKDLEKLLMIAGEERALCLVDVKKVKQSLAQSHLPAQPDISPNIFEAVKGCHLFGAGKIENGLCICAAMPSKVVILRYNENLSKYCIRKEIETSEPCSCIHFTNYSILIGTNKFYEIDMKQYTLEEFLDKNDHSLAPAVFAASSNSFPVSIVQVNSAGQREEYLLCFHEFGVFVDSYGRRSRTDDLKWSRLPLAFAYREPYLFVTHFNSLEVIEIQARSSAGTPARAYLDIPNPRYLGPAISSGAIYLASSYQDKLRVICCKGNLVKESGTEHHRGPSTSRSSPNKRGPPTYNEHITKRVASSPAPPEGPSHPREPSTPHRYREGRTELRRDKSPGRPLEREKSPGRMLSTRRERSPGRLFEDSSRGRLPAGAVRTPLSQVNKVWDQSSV

As for `CC(=O)c1cnc2ccc(-c3cc(Cl)c(O)c(Cl)c3)nc2c1N[C@H]1CC[C@H](CN(C)C)CC1` [OTS-167], the pIC50 is roughly 8.00.

What is called pIC50 is −log10 of the IC50, conventionally taken in molar units.
